Earlier results in patent US8957276B2 (priority 2009, dated 2015).

Assays:
Rat = settings: in vivo, po
Human = settings: in vivo, po

Structure (SMILES)	Acute toxicity (LD50) (Rat) [mg/kg]	Acute toxicity (LD50) (Human) [mg/kg]
[CH3][Hg][CH3] [(CH3)2Hg]	26	
[Cl][Hg].[Cl][Hg] [Hg2Cl2]	210	
[Hg] [Hg, metallic mercury]		43
[Cl][Hg][Cl] [HgCl2, mercury chloride (II)]	1	
[Cl][Hg] [HgCl]	210	
[O]=[Hg] [HgO, mercury oxide]	18	
